Experimental data taken from PMC4885489, “Prediction of Drug-Drug Interactions Arising from CYP3A induction Using a Physiologically Based Dynamic Model” (Drug Metabolism and Disposition, 2016).
Where “and” joins values, the source holds several entries; their conditions need not be identical. Equal entries are not always repeated. Where two headings read alike, the source gives them in different places.

Experiments:
[1] = cited from earlier work
[2] = cited from earlier work; remark: listed apart in the source
rCYP3A5 = details: cited from earlier work; for Km: read-out: rCYP3A5 Km
CYP3A4 [3] = details: human, in vivo, po, cited from earlier work
[4] = cited from earlier work; remark: listed apart in the source
CYP3A [5] = test: in vitro; details: human, cryopreserved human hepatocytes, probe testosterone (6β-hydroxytestosterone formation)
[6] = ref Meta-analysis (Bonneton et al., 1992); (de Groot et al., 1984); cited from earlier work
[7] = Neutral; ref (Zhu et al., 2002); (Lombardo et al., 2000); (Henczi et al., 1995) and 4 others; cited from earlier work
HLM [8] = test: Additional (unassigned) intrinsic clearance; details: Added to recover degree of auto-induction via enzymes other than CYP3A4
rCYP2C8 = system: rCYP2C8; design: method as in ref (Cazali et al., 2003); details: ref (Cazali et al., 2003); cited from earlier work
CYP3A [9] = details: mean of four human hepatocyte donors; three-parameter fit; Indmax = Emax + 1
[10] = cited from earlier work; remark: listed apart in the source
HLM [11] = system: HLM; design: method as in ref (Pearce et al., 2002); details: Other enzymes were combined; ref (Pearce et al., 2002); cited from earlier work
CYP3A [12] = test: in vitro; details: human, cryopreserved human hepatocytes
rCYP3A4 = details: ref (Cazali et al., 2003), (Huang et al., 2004), cited from earlier work
rUGT2B7 = system: rUGT2B7; design: method as in ref (Staines et al., 2004); details: ref (Staines et al., 2004); cited from earlier work
CYP3A [13] = details: mean of four human hepatocyte donors; three-parameter fit; Indmax = Emax + 1; remark: listed apart in the source
rUGT1A4 = details: corrected for fumic & ISEF, ref Meta-analysis (Emoto et al., 2003), (Galetin et al., 2004) and 7 others incl. (Hyland et al., 2009), cited from earlier work
CYP3A4 [14] = test: Rifampicin-mediated clinical drug-drug interaction studies with CYP3A4 probe substrates; assay type: in vivo, human; details: for reduction in MDZ AUC, median: rifampicin, across clinical studies of Table 3; for fold induction: human, plasma, read-out: Geometric mean fold induction
CYP3A4 [15] = details: read-out: CYP3A4 Ki; ref (Nielsen et al., 1999); (Ngui et al., 2000); (Guengerich et al., 1986); cited from earlier work
CYP2D6 = system: CYP2D6; design: method as in ref (Ching et al., 1995); (Broly et al., 1989); (Lalovic et al., 2004); details: ref (Ching et al., 1995); (Broly et al., 1989); (Lalovic et al., 2004); cited from earlier work
rCYP2C9 = details: corrected for fumic & ISEF, ref (Von Moltke et al., 1999), cited from earlier work; for Km: read-out: rCYP2C9 Km
rCYP2D6 = details: corrected for fumic & ISEF, ref (Von Moltke et al., 1999), cited from earlier work; for Km: read-out: rCYP2D6 Km
CYP3A4 [16] = details: human, in vivo, cited from earlier work
rCYP1A2 = details: corrected for fumic & ISEF, ref (Von Moltke et al., 1999), cited from earlier work; for Km: read-out: rCYP1A2 Km
rCYP2J2 = details: corrected for fumic & ISEF, ref (Von Moltke et al., 1999), cited from earlier work; for Km: read-out: rCYP2J2 Km
rCYP2C19 = details: M3, corrected for fumic & ISEF, ref (Von Moltke et al., 1999), cited from earlier work
[17] = 1-hydroxylation, corrected for fumic & ISEF, ref Meta-analysis (Emoto et al., 2003), (Galetin et al., 2004) and 7 others
[18] = 4-hydroxylation, corrected for fumic & ISEF, ref Meta-analysis (Emoto et al., 2003), (Galetin et al., 2004) and 7 others

C=C[C@@]1(O)CN2CC[C@H]1C[C@@H]2[C@@H](O)c1ccnc2ccc(OC)cc12 [3-OH Quinidine]
CLR ([1]; in vivo): 16.7 L/h | CLpo ([1]; in vivo): 52.6 L/h

Cc1nnc2n1-c1ccc(Cl)cc1C(c1ccccc1)=NC2 [Alprazolam, alprazolam]
ka ([2]; ref (Smith et al., 1984), (Lin et al., 1988), (Kirkwood et al., 1991), (Amchin et al., 1998), (Greenblatt et al., 1983)): 3.56 h⁻¹ | Km (rCYP3A5; 4-hydroxylation, corrected for fumic & ISEF, ref Meta-analysis (Hirota et al., 2001), (Galetin et al., 2004) (Williams et al., 2002)): 211 µM | Km (rCYP3A5; second pathway, printed 'oxylation', corrected for fumic & ISEF, ref Meta-analysis (Hirota et al., 2001), (Galetin et al., 2004) (Williams et al., 2002)): 205 µM | AUC (CYP3A4 [3]; 1 mg): 242 (31.3) ng/mL.h | AUCi (CYP3A4 [3]): 28.4 (23.9) ng/mL.h | Vss (Minimal PBPK) ([4]; in vivo): 0.99 L/kg | CLR ([1]; in vivo): 0.678 L/h

NC(=O)N1c2ccccc2C=Cc2ccccc21 [Carbamazepine, carbamazepine]
EC50 (CYP3A [5]): 59.1 µM | ka ([2]; ref (Geradin et al., 1976), (Grimsley et al., 1991), (Olling et al., 1999), (Wong et al., 1983)): 0.5 h⁻¹ | fa ([2]; ref (Tchaparian et al., 2008), (Faigle and Feldmann, 1975), (Levy et al., 1975)): 0.84 | B:P [6]: 1.07 | logP [7]: 2.22 | Km (rCYP3A5; ref (Huang et al., 2004)): 332 µM | rCYP3A5 Vmax (rCYP3A5; ref (Huang et al., 2004)): 1.44 pmol/min/pmol | Add rCYP CLint (HLM [8]): 0.010 µL/min/pmol | Km (rCYP2C8): 742 µM | rCYP2C8 Vmax (rCYP2C8): 0.03 pmol/min/pmol | Vss (Minimal PBPK) ([4]; ref (Ramsay et al., 1990)): 0.78 L/kg | mRNA Indmax (CYP3A [9]): 21.9 fold | CLR ([1]; parent carbamazepine, ref (Kim et al., 2005)): 0.0084 L/h | fu ([10]; ref Meta-analysis (Grimsley et al., 1991), (Di Salle et al., 1974), (Rawlins et al., 1975) and 4 others): 0.25 | Add HLM CLint (HLM [11]): 0.255 µL/min/mg | EC50 (CYP3A [12]): 58.7 µM | Km (rCYP3A4; read-out: rCYP3A4 Km): 180 µM | rCYP3A4 Vmax (rCYP3A4): 0.72 pmol/min/pmol | Km (rUGT2B7): 25.4 µM | rUGT2B7 Vmax (rUGT2B7): 4.18 pmol/min/pmol | Activity Indmax (CYP3A [13]): 16.6 fold

NC(=O)N1c2ccccc2C2OC2c2ccccc21 (stereo not shown) [Carbamazepine-10,11-epoxide]
CLR ([1]; in vivo): 0.14 L/h | CLpo ([1]; in vivo): 6.07 L/h

Cc1ncc2n1-c1ccc(Cl)cc1C(c1ccccc1F)=NC2 [Midazolam, midazolam]
ka ([2]; ref (Allonen et al., 1981)): 3 h⁻¹ | rUGT1A4 Vmax (rUGT1A4): 445 µL/min/mg | Km (rUGT1A4; read-out: rUGT1A4 Km): 40.3 µM | rCYP3A5 Vmax (rCYP3A5; [17]): 19.7 µL/min/pmol | rCYP3A5 Vmax (rCYP3A5; [18]): 4.03 µL/min/pmol | Km (rCYP3A5; [17]): 4.16 µM | Km (rCYP3A5; [18]): 34.8 µM | AUC ratio (CYP3A4 [3]; 0.075 mg): 2.3 fold | reduction in MDZ AUC, median (CYP3A4 [14]; MDZ administered orally, listed as MDZ): 17.5 fold and 18.1 fold | reduction in MDZ AUC, median (CYP3A4 [14]; MDZ i.v. administration): 2.0 fold | fold induction (CYP3A4 [14]; iv): 1.99 | fold induction (CYP3A4 [14]; po): 18.1 | 1/AUC ratio, CI of the observations (CYP3A4 [14]; meta-analysis of studies where midazolam was administered orally with rifampicin): 5.4-60.4 | Vss (Minimal PBPK) ([4]; in vivo): 1 L/kg | CLR ([1]; in vivo): 0.085 L/h | Fe ([1]; in vivo): 0.0033

C=C[C@H]1C[N@@]2CC[C@H]1C[C@@H]2[C@@H](O)c1ccnc2ccc(OC)cc12 [Quinidine, quinidine]
Ki (CYP3A4 [15]): 40 µM | Ki (CYP2D6): […]

CO[C@H]1/C=C/O[C@@]2(C)Oc3c(C)c(O)c4c(O)c(c(/C=N/N5CCN(C)CC5)c(O)c4c3C2=O)NC(=O)/C(C)=C\C=C\[C@H](C)[C@H](O)[C@@H](C)[C@@H](O)[C@@H](C)[C@H](OC(C)=O)[C@@H]1C [Rifampicin, rifampicin]
Vss (Minimal PBPK) ([4]; ref (Loos et al., 1985)): 0.33 L/kg | CLiv ([1]; in vivo): 7 L/h | CLR ([1]; ref Polk 2001): 1.2 L/h | fu ([10]; ref (Burman et al., 2001)): 0.15

Cc1nnc2n1-c1ccc(Cl)cc1C(c1ccccc1Cl)=NC2 [Triazolam, triazolam]
AUC (CYP3A4 [3]; 0.5 mg): 14.8 (21.4) ng/mL.h | 1/AUC Ratio (CYP3A4 [3]): 20.0 | AUCi (CYP3A4 [3]): 0.74 (59.8) ng/mL.h

Cc1ccc(-c2nc3ccc(C)cn3c2CC(=O)N(C)C)cc1 [Zolpidem, zolpidem]
ka ([2]; ref (Olubodun et al., 2003), (Patat et al., 1994)): 2.25 h⁻¹ | rCYP2C9 Vmax (rCYP2C9; M3): 17.42 µL/min/pmol | rCYP2C9 Vmax (rCYP2C9; M4): 0.888 µL/min/pmol | Km (rCYP2C9; M3): 103 µM | Km (rCYP2C9; M4): 81 µM | AUC (CYP3A4 [3]; 20 mg): 1110 (36.9) ng/mL.h | 1/AUC Ratio (CYP3A4 [3]): 3.34 | AUCi (CYP3A4 [3]): 332 (56.4) ng/mL.h | Vss (Minimal PBPK) ([4]; in vivo): 0.68 L/kg | rCYP2D6 Vmax (rCYP2D6; M3): 1.44 µL/min/pmol | rCYP2D6 Vmax (rCYP2D6; M4): 4.68 µL/min/pmol | Km (rCYP2D6; M3): 190 µM | Km (rCYP2D6; M4): 214 µM | AUC (CYP3A4 [16]; 5 mg): 0.235 (70.4) mg/L.h | 1/AUC Ratio (CYP3A4 [16]): 2.31 | AUCi (CYP3A4 [16]): 0.102 (58.1) mg/L.h | CLR ([1]; in vivo): 0.18 L/h | fe ([1]; in vivo): 0.01 | rCYP1A2 Vmax (rCYP1A2; M3): 7.99 µL/min/pmol | rCYP1A2 Vmax (rCYP1A2; M4): 0.777 µL/min/pmol | Km (rCYP1A2; M3): 38 µM | Km (rCYP1A2; M4): 40 µM | rCYP2J2 Vmax (rCYP2J2; M4): 6.86 µL/min/pmol | Km (rCYP2J2; M3): 340 µM | Km (rCYP2J2; M4): 399 µM | rCYP2C19 Vmax (rCYP2C19): 0.8 µL/min/pmol | Km (rCYP2C19; read-out: rCYP2C19 Km): 133 µM
